According to patent US9096650B2, “Cyclic oligopeptides for binding to a target ligand” (LEXCICON LIMITED, priority 2006, dated 2015):
[ ]: non-standard residue; d: D form. Gly(decyl) = CCCCCCCCCC[C@H](N)C(=O)O

Columns and labels:
[1] = test system: J774A.1 cells (a macrophage cell line); assay type: cell-based; details: peptide 12.5 ug/ml; CTB 10 ug/ml; CTB alone 690.8, medium control 67.5
[2] = test system: J774A.1 cells (a macrophage cell line); experiment: Suppression of LPS-stimulated TNF secretion by cyclic analogues of Copaxone (Example 6); assay type: cell-based; details: for TNF concentration: peptide 12.5 ug/ml as cyclodextrin complex, LPS 0.1 ug/ml, medium + LPS 637.6
Description: • 1. Two cyclic oligopeptides were prepared with the following structures: cyclo(-A-K-Σ-Y-E-K-A-Σ-E-Y-) cyclo(-A-K-Σ-E-Y-K-A-Σ-Y-E-) • All amino acids are in the L form unless indicated otherwise. • All amino acids are linked by peptide bonds. • A, K, Y and E represent the epitope-forming amino acids and Σ represents the associating functional group borne on the associating amino acid wherein the associating amino acid is an L-alpha aminocarboxylic acid and the associating functional group is a side-chain residue consisting of a straight aliphatic chain containing ten carbon atoms. • The cyclic oligopeptides were prepared as solutions in hexafluoro-isopropanol (HFIP) at a concentration of 10 mg/ml, then mixed with equal volumes of HFIP solution containing beta-hydroxypropyl cyclodextrin at a concentration of 50 mg/ml. The organic solutions were then dried down under nitrogen, and the peptide/cyclodextrin complex redissolved in distilled water to give a final concentration of cyclic oligopeptide of 1 mg/ml. • 2. J774A.1 cells (a macrophage cell line) were plated out in all the wells of a 24-well cluster plate at a seeding density of 3×10^5 cells/ml/well (1 ml RPMI 1640 culture medium per well), and incubated overnight at 37° C. in 5% CO2/air. • 3. The following day, the solutions from step 1 were administered to wells containing cells in step 2, to give three wells each with a final concentration of 12.5 ug/ml of peptide. Additional wells containing cyclodextrin alone at 62.5 ug/ml were also prepared. The remaining wells were left untreated. The plate was incubated for a further four hours at 37 degC. • 4. Lipopolysaccharide (from E. coli strain 0111 B4) was added to the wells receiving the cyclic oligopeptide solution, as well as three of the wells receiving no peptide. The final concentration of lipopolysaccharide was 0.1 ug/ml. • 5. The plate was incubated overnight, and the following day the supernatants were assayed for TNF using a commercial ELISA kit.

[3] = test system: J774-1 cells (a macrophage cell line); experiment: Suppression of TNF secretion stimulated by LPS in a macrophage cell line, varying epitope order and stereochemistry of associating amino acids (Example 3); assay type: cell-based; details: peptide 50 ug/ml; LPS 1.25 ug/ml; LPS alone 1861.9
Description: • 1. Cyclic octapeptides were prepared with the following structures: cyclo(-DF-S-ΣL-R-DF-S-ΣL-R-) cyclo(-DF-S-ΣL-R-DF-S-ΣD-R-) cyclo(-DF-S-ΣD-R-DF-S-ΣD-R-) cyclo(-DF-R-ΣL-S-DF-R-ΣL-S-) cyclo(-DF-R-ΣL-S-DF-R-ΣD-S-) cyclo(-DF-R-ΣD-S-DF-R-ΣD-S-) wherein F, S and R are the epitope-forming amino acids, ΣL represents an associating amino acid which is an L-alpha aminocarboxylic acid in which the associating functional group is a side-chain residue consisting of an unbranched —C10H21; ΣD represents an associating amino acid which is a D-alpha aminocarboxylic acid in which the associating functional group is a side-chain residue consisting an unbranched —C10H21. These cyclic oligopeptides were prepared as solutions in distilled water at a concentration of 1 mg/ml. • 2. J774-1 cells (a macrophage cell line) were plated out in all the wells of a 24-well cluster plates at a seeding density of 3×10^5 cells/ml/well (1 ml RPMI 1640 culture medium per well), and incubated overnight at 37° C. in 5% CO2/air. • 3. The following day, the solutions from step 1 were administered to eighteen wells containing cells in step 2, to give three wells each with a final concentration of 50 ug/ml. The remaining wells were left untreated. The plate was incubated for a further four hours at 37 degC. • 4. Lipopolysaccharide (from E. coli strain 0111 B4) was added to the wells receiving the octapeptide solutions, as well as three of the wells receiving no peptide. The concentration of lipopolysaccharide was 1.25 ug/ml. • 5. The plate was incubated overnight, and the following day the supernatants were assayed for TNF using a commercial ELISA kit.

[4] = test system: J774A.1 cells (a macrophage cell line); experiment: Suppression of LPS-stimulated TNF secretion by peptide formulated with hydroxypropyl beta-cyclodextrin (Example 4); assay type: cell-based
Description: • 1. A cyclic octapeptide with the structure cyclo(-DF-S-Σ-R-DF-S-Σ-R-) was prepared as a solution in transcutol at a concentration of 5 mg/ml, where Σ represents the associating amino acid as an L-alpha aminocarboxylic acid and the associating functional group borne on the associating amino acid as a side-chain residue consisting of a straight aliphatic chain containing ten carbon atoms. • 2. Six separate aliquots of 200 ul of the solution in step 1 were transferred to fresh 8 ml vials and mixed with slow vortexing with 800 ul of a solution of hydroxy-propyl beta cyclodextrin at a concentration 50, 25, 12.5, 6.25, 3.125 or 1.5625 mg/ml in distilled water • 2. J774A.1 cells (a macrophage cell line) were plated out in all the wells of a 24-well cluster plates at a seeding density of 5×10^5 cells/ml/well (1 ml RPMI 1640 culture medium per well), and incubated overnight at 37° C. in 5% CO2/air. • 3. The following day, each of the solutions from step 1 were administered in appropriate volumes to wells containing cells in step 2, to give three wells each with a final concentration of 8, 4, or 2 ug/ml. The remaining wells were left untreated. The plate was incubated for a further four hours at 37 degC. • 4. Lipopolysaccharide (from E. coli strain 0111 B4) was added to the wells receiving the octapeptide solution, as well as three of the wells receiving no peptide. The final concentration of lipopolysaccharide was 0.625 ug/ml. • 5. The plate was incubated overnight, and the following day the supernatants were assayed for TNF using a commercial ELISA kit.

[5] = test system: TNF; experiment: Suppression of TNF secretion stimulated by LPS in rats (Example 5); assay type: in vivo
Description: • 1. A cyclic octapeptide with the structure cyclo(-DF-S-Σ-R-DF-S-ΣR-), where Σ represents the associating amino acid as an L-alpha aminocarboxylic acid and the associating functional group borne on the associating amino acid as a side-chain residue consisting of a straight aliphatic chain containing ten carbon atoms, was prepared as a solution in transcutol and hydroxypropyl beta-cyclodextrin as described in example 4, where the concentration of peptide was 1 mg/ml, and the final concentration of cyclodextrin was 40 mg/ml. • 2. Rats weighing 250 g were injected i.p. with 1 ml of peptide solution (1 mg peptide per rat). A second group of rats received 1 ml of the transcutol/cyclodextrin vehicle containing no peptide. One hour later, the rats were further injected with 1 mg of lipopolysaccharide (from Salmonella abortus equi). • 3. 150 minutes later, blood samples were taken, and TNF levels measured in the two groups by ELISA.

[6] = test system: J774A.1 cells (a macrophage cell line); experiment: Dose response: suppression of TNF secretion stimulated by lipopolysaccharide (LPS) in a macrophage cell line (Example 1); assay type: cell-based; details: LPS 0.625 ug/ml
Description: • 1. A cyclic octapeptide with the structure: cyclo(-DF-S-Σ-R-DF-S-Σ-R-) • was synthesised using standard methods based on the Merrifield resin-based technique, followed by solution-phase cyclisation. The purified peptide was prepared as a solution in distilled water at a concentration of 1 mg/ml. • R, F and S represent the epitope-forming amino acids and Σ represents the associating functional group borne on the associating amino acid wherein the associating amino acid is an L-alpha aminocarboxylic acid and the associating functional group is a side-chain residue consisting of a straight aliphatic chain containing ten carbon atoms. • All amino acids are in the L form unless indicated otherwise. • All amino acids are linked by peptide bonds. • 2. J774A.1 cells (a macrophage cell line) were plated out in all the wells of a 24-well cluster plates at a seeding density of 5×10^5 cells/ml/well (1 ml RPMI 1640 culture medium per well), and incubated overnight at 37° C. in 5% CO2/air. • 3. The following day, the solution from step 1 was administered to fifteen wells containing cells in step 2, to give three wells each with a final concentration of 50, 25, 12.5, 6.25 or 3.125 ug/ml. The remaining wells were left untreated. The plate was incubated for a further four hours at 37 degC. • 4. Lipopolysaccharide (from E. coli strain 0111 B4) was added to the wells receiving the octapeptide solution, as well as three of the wells receiving no peptide. The final concentration of lipopolysaccharide was 0.625 ug/ml. • 5. The plate was incubated overnight, and the following day the supernatants were assayed for TNF using a commercial ELISA kit.

[7] = test system: TNF secretion; details: in words; literature reference; cited from earlier work

cyclo(-DF-S-Σ4-R-DF-S-Σ4-R-)
Concentration of TNF [1]: 621.1 pg/mL

cyclo(-A-K-Σ-Y-E-K-A-Σ-E-Y-) [cyclo(-A-K-Σ-Y-E-K-A-Σ-E-Y)]
effect on TNF secretion by macrophages compared with Copaxone ([2]; in words): displays the same effect on TNF secretion by macrophages
TNF concentration [2]: 486.9 pg/mL

cyclo(-DF-R-Σ4-S-DF-R-Σ4-S-)
Concentration of TNF [1]: 664.4 pg/mL

cyclo(-A-K-Σ-E-Y-K-A-Σ-Y-E-) (cyclo(AK[Gly(decyl)]EYKA[Gly(decyl)]YE); SMILES CCCCCCCCCC[C@@H]1NC(=O)[C@H](C)NC(=O)[C@H](CCCCN)NC(=O)[C@H](Cc2ccc(O)cc2)NC(=O)[C@H](CCC(=O)O)NC(=O)[C@H](CCCCCCCCCC)NC(=O)[C@H](CCCCN)NC(=O)[C@H](C)NC(=O)[C@H](CCC(=O)O)NC(=O)[C@H](Cc2ccc(O)cc2)NC1=O) [cyclo(-A-K-Σ-E-Y-K-A-Σ-Y-E), cyclic analogue of Copaxone; Σ = L-alpha aminocarboxylic acid with straight C10 side chain]
TNF concentration [2]: 928.8 pg/mL

cyclo(-DF-S-Σ10-R-DF-S-Σ10-R-)
Concentration of TNF [1]: 85.7 pg/mL

cyclo(-DF-S-Σ-R-DF-S-Σ-R-)
Concentration of TNF [3]: 865.4 pg/mL
inhibition of TNF secretion ([4]; in words, down to 2 ug/ml in the well, cyclodextrin from 40:1 wt:wt downwards): significant inhibition
TNF concentration ([4]; peptide 2 ug/ml, cyclodextrin:peptide 1.25 by weight): 2161.8 pg/mL
TNF concentration ([4]; peptide 2 ug/ml, cyclodextrin:peptide 2.5 by weight): 2314.2 pg/mL
TNF concentration ([4]; peptide 2 ug/ml, cyclodextrin:peptide 5 by weight): 2177.2 pg/mL
TNF concentration ([4]; peptide 2 ug/ml, cyclodextrin:peptide 10 by weight): 2278.3 pg/mL
TNF concentration ([4]; peptide 2 ug/ml, cyclodextrin:peptide 20 by weight): 2223.9 pg/mL
TNF concentration ([4]; peptide 2 ug/ml, cyclodextrin:peptide 40 by weight, LPS 0.625 ug/ml, no peptide 2519.3): 2450.2 pg/mL
TNF concentration ([4]; peptide 4 ug/ml, cyclodextrin:peptide 1.25 by weight): 1599.9 pg/mL
TNF concentration ([4]; peptide 4 ug/ml, cyclodextrin:peptide 2.5 by weight): 1538.7 pg/mL
TNF concentration ([4]; peptide 4 ug/ml, cyclodextrin:peptide 5 by weight): 1477.5 pg/mL
TNF concentration ([4]; peptide 4 ug/ml, cyclodextrin:peptide 10 by weight): 1474.8 pg/mL
TNF concentration ([4]; peptide 4 ug/ml, cyclodextrin:peptide 20 by weight): 1488.1 pg/mL
TNF concentration ([4]; peptide 4 ug/ml, cyclodextrin:peptide 40 by weight): 1646.5 pg/mL
TNF concentration ([4]; peptide 8 ug/ml, cyclodextrin:peptide 1.25 by weight): 1130.9 pg/mL
TNF concentration ([4]; peptide 8 ug/ml, cyclodextrin:peptide 2.5 by weight): 1105.7 pg/mL
TNF concentration ([4]; peptide 8 ug/ml, cyclodextrin:peptide 5 by weight): 1140.6 pg/mL
TNF concentration ([4]; peptide 8 ug/ml, cyclodextrin:peptide 10 by weight): 1218.7 pg/mL
TNF concentration ([4]; peptide 8 ug/ml, cyclodextrin:peptide 20 by weight): 1298.4 pg/mL
TNF concentration ([4]; peptide 8 ug/ml, cyclodextrin:peptide 40 by weight): 1276.9 pg/mL
TNF (blood) ([5]; 1 mg peptide i.p. in transcutol/cyclodextrin, 1 mg LPS one hour later, blood 150 minutes later, vehicle 10717): 2370 pg/mL
reduction of TNF production versus vehicle ([5]; 1 mg peptide i.p., LPS stimulus): greater than 75%
TNF concentration ([6]; peptide 3.125 ug/ml, LPS alone 1780.09): 1494.53 pg/mL
TNF concentration ([6]; peptide 6.25 ug/ml): 1346.20 pg/mL
TNF concentration ([6]; peptide 12.5 ug/ml): 1037.31 pg/mL
TNF concentration ([6]; peptide 25.0 ug/ml): 621.75 pg/mL
TNF concentration ([6]; peptide 50.0 ug/ml): 613.70 pg/mL

cyclo(-DF-R-Σ10-S-DF-R-Σ10-S-)
Concentration of TNF [1]: 268.5 pg/mL

Glatiramer acetate [Copaxone]
TNF secretion in vitro [7]: down-regulate TNF secretion in vitro
